Results taken from a melting point compilation (Tetko et al.; mined from patent text by program, amines drawn as free bases though some values may be those of a salt).

| SMILES | melting point |
| --- | --- |
| CCN(C(C)=O)c1ccc(OC23CCC(CC2)CC3)cc1 | 99 to 101 °C |
| OCc1cnn(-c2ccccc2)c1-c1ccccc1 | 147 to 148 °C |
| COc1ccc2c(c1)SSSSS2 | 97 to 98 °C |
| CC1=C(C#N)C(c2cccc3nnc(-c4ccccc4)cc23)C(C(=O)OC(C)C)=C(C)N1 (stereo unspecified) | 200 to 202 °C |
| Cc1cc(C)nc(NC#N)n1 | 205 °C |
| CCOc1cc2c(c(F)c1F)OC(C1CCC(CC)CC1)CC2 (stereo unspecified) | 90 °C |
| CC(C)C(=O)N[C@@H](CSC(=O)C(C)C)C(=O)NCCSC(=O)C(C)C | 94 to 96 °C |
| Cc1[nH]cnc1CSCCSC#N | 101 to 103 °C |
| COC1(C2=NCCN2)COc2c(F)cccc2O1 (stereo unspecified) | > 260 °C |
| C[C@H](NC(=O)c1cc(Cl)c(Cl)cc1C(=O)O)C(=O)N1CCC[C@H]1C(=O)O | 134 to 137 °C |
| C=CCOc1ccc2cc(C(=O)OCC)[nH]c2c1 | 89 to 91 °C |
| CN1CCN(c2cc3nc(C(C)(C)C)sc3cc2N=C=S)CC1 | 124 to 126 °C |
| CC1(C)CCC(C)(C#N)c2ccccc21 (stereo unspecified) | 46 °C |
| COC(=O)c1ccccc1NS(=O)(=O)c1nc2nc(C)cc(C)n2n1 | 170 °C |
| CCCCN(Sc1nc2ccccc2s1)C(C)(C)C | 55 to 56 °C |
| CCOC(=O)CNC(=O)Nc1ccc(C(=N)NC(=O)OC(C)(C)C)cc1 | 107 to 110 °C |
| CCCCOc1ccc(S(C)(=O)=O)cc1C(N)=O | 146 to 150 °C |
| NCc1c([N+](=O)[O-])ccc(N2CCCC2)c1Cl | 71 to 73 °C |
| O=C(O)CN1CCOc2ccc([N+](=O)[O-])cc2C1=O | 110 to 120 °C |
| CC(C)(C)C(C(N)=O)c1cccc(Nc2ncnc3[nH]cc(C(=O)c4ccccc4)c23)c1 (stereo unspecified) | 288 to 290 °C |
| CCCCCCCCCCCCCCOc1ccc(C(=O)N(Cc2ccccn2)C(C)=O)cc1 | 68 to 70 °C |
| O=S(=O)(Nc1nc(O)ncc1F)c1ccccc1 | 221 to 223 °C |
| ClCC1c2ccccc2Oc2ccccc21 | 104 to 106 °C |
| CC1C(=O)OC2=C(CSc3ccccc32)C1=O (stereo unspecified) | 275 to 277 °C |
| CC1(C)Cc2sc(C(=O)O)cc2C1=O | 124 to 125 °C |

| SMILES | melting point |
| --- | --- |
| O=C1Nc2cc(Br)ccc2Oc2cscc21 | 245 to 249 °C |
| Clc1ccc2nc(-c3ccc(Cl)s3)cn2n1 | 226 to 230 °C |
| C1=CC[C@@]2(Cc3ccccc3)CN(Cc3ccccc3)C[C@H]2C1 (relative stereo) | 142 to 144 °C |
| COC(=O)c1cc(C#CC2(c3ccc(OC)c(OC4CCCC4)c3)CCC(=O)CC2)cc(C(=O)OC)c1 | 134 to 135 °C |
| O=S(=O)(c1ccc(Cl)cc1)C(CCl)Sc1ccc(Br)cc1 (stereo unspecified) | 76 to 78 °C |
| CC(C)(C)OC(=O)Cc1n[nH]c(=O)c2ccccc12 | 164 to 166 °C |
| COc1ccc2onc(Nc3ccncc3)c2c1 | 248 to 251 °C |
| Cc1nnc2n1-c1sc(C#CCN3C(=O)C(=O)c4ccccc43)cc1C(c1ccccc1Cl)=NC2 | 185 to 190 °C |
| O=[N+]([O-])c1ccc(OCC=CCBr)c([N+](=O)[O-])c1 | 55 to 57 °C |
| Cc1cc(-c2nnc3c4ccccc4c(OCc4cc(C(C)(C)C)cnn4)nn23)no1 | 219 to 221 °C |
| CCOC(=O)c1ccc(O)cc1SC | 132 to 136 °C |
| COc1cc2[nH]c(C(=O)O)cc2c(C)c1C | 208 °C |
| O=C1CC(O)CC(/C=C/c2ccc(Cl)c(Cl)c2)O1 (stereo unspecified) | 92 to 94 °C |
| NS(=O)(=O)c1cc(C(=O)c2ccccc2)ccc1Cl | 183 to 185 °C |
| CC1(CF)C=C(Br)c2cc([N+](=O)[O-])ccc2O1 (stereo unspecified) | 116 to 117 °C |
| COC(=O)c1cc2c3ccccc3nc(C)n2n1 | 155 to 156 °C |
| C#CCNc1cc(C(=O)OCC)cc(S(N)(=O)=O)c1Oc1ccccc1 | 189 to 190 °C |
| COC(=O)c1c(Cl)nc2cc3c(cc2c1CCl)OCCO3 | 130 to 132 °C |
| Cc1cc(-n2c(C)nc3ccccc32)cc2c1NC(=O)CC2C (stereo unspecified) | 248 to 252 °C |
| CCn1c(=O)c2c(nc(/C=C/c3ccc(OC)cc3OC)n2C)n(CC)c1=O | 196 to 197 °C |
| CCCCSC(=S)N1C(CO)Cc2c([nH]c3ccccc23)C1C (stereo unspecified) | 110 to 113 °C |
| CN1C2=C(CSC2)C(=O)Nc2cc(Cl)c(Cl)cc21 | 281 to 283 °C |
| COc1cc(OCc2ccccn2)ccc1/C=C/c1cc(/C=C/c2ccc3cc[nH]c3c2)n[nH]1 | 237 to 239 °C |
| CNc1c(CCO)cc(N)c([N+](=O)[O-])c1CCO | 99 °C |
| Cc1nc2ccc(O)cc2c(=O)n1C1CCC(=O)NC1=O (stereo unspecified) | 315 to 317 °C |

Second part, the compound after the results:

| melting point | SMILES |
| --- | --- |
| 201 to 203 °C | COc1cccc2c(=O)c3ccc(SC)cc3oc12 |
| 164 to 165 °C | CCc1nnc(-c2ccc3occ(-c4ccc(SC)cc4)c3c2)o1 |
| 75 to 76 °C | CCCCCCCc1nc(-c2ccccc2)c(-c2ccccc2)n1CCCCCCCC(=O)O |
| 182 to 183 °C | C/C(=C\c1ccc(CO)cc1)c1ccc2c(c1)C(C)(C)C(O)CC2(C)C (stereo unspecified) |
| 165 to 166 °C | CCCCCCCCc1sc(NC(=O)C2(C)Cc3cc(C)ccc3N2Cc2cccc(C(=O)OC)c2)nc1-c1cc(OC)c(Cl)cc1OC (stereo unspecified) |
| 100 to 103 °C | O=C(c1ccc(OCCN2CCCCC2)cc1)c1c(-c2ccc(O)cc2)sc2ccccc12 |
| 182 to 185 °C | CCOC(=O)c1cnc2sc(CN3CCOCC3)c(C)c2c1O |
| > 285 °C | Cc1ccc(Nc2nc(-c3ccccc3)c(C(=O)c3sc(Nc4ccc(C)cc4)nc3-c3ccccc3)s2)cc1 |
| 210 to 212 °C | CCOCc1nc2c(N)nc3cc(N4CCN(CC)C4=O)ccc3c2n1CC(C)(C)O |
| 141 to 143 °C | CNCc1cc(Oc2ccc3c(C(=O)Nc4cccc(C(F)(F)F)c4)cccc3c2)ncn1 |
| 155 to 156 °C | O=C(O)COc1ccc2cc(-c3oc4ccccc4c3CCC3CCCC3)ccc2c1Br |
| 210 to 212 °C | CNC(=O)CNc1cccc2c1C(=O)N(C1CCC(=O)NC1=O)C2=O (stereo unspecified) |
| 110 to 111 °C | CCC(CC)c1nn(-c2ncc(C(F)(F)F)cn2)cc1CCCOc1c(C)cccc1CC(=O)O |
| 255 to 258 °C | O=C1CNc2ncc(-c3cnc4[nH]ccc4c3)nc2N1CCC1CCOCC1 |
| 147 to 148 °C | CCc1ccc2c(=O)c(CO)cn(C)c2c1 |
| 124 to 128 °C | Cc1cn(C)c(C)c1-c1ccnc(Nc2ccc(F)cc2)n1 |
| 205 to 206 °C | O=c1ccn(-c2ccc(N3CCOCC3)cc2)nc1-c1ccnn1-c1ccccc1 |
| 114 to 116 °C | CN(C)C(=O)c1cc2ccccc2c(-c2ccccc2)n1 |
| 178 to 179 °C | CCCN(Cc1ccc(-c2ccccc2-c2nnnn2C(c2ccccc2)(c2ccccc2)c2ccccc2)cc1)c1nc(C)nnc1C(=O)OCC |
| 261 to 262 °C | CCCCc1nc2cc(Cl)cc(C(=O)O)c2n1Cc1ccccc1Cl |
| 198 to 199 °C | O=C(NCCn1cc(Cn2ccnc2)c2ccccc21)Nc1ccccc1 |
| 124 to 127 °C | CCS(=O)(=O)N[C@H](C(=O)NCCc1ccc(OCc2ccc(Cl)s2)c(OC)c1)C(C)C |
| 128 to 129 °C | Cc1nc(OCc2c(C(C)C)nnn2-c2c(Cl)cccc2Cl)ccc1N(C)S(=O)(=O)c1ccc(C(=O)O)cc1 |
| 171 °C | Cc1cc2c3c(c1)c1c(n3C(c3ccccc3)CO2)CCCC1=O (stereo unspecified) |
| 125 to 127 °C | CCN1C(=O)C(C)(C)C(=O)N(C)c2cc(CN(C)Cc3ccccc3CN3C(=O)CCc4ccccc43)ccc21 |
| 304 to 305 °C | COc1ccc2c(c1)c(-c1cc3c(C#N)ccnc3[nH]1)cn2C |

| melting point | SMILES |
| --- | --- |
| 250 °C | Cc1ccc(-c2ccc(C)c(C(N)=O)c2N)cc1 |
| 230 to 235 °C | CSc1cc2c(cc1F)C(=O)c1cc3ccccc3cc1C2=O |
| 243 to 245 °C | Cc1ccc(C=CC(=O)N[C@@H](Cc2ccc(OCCc3nc(-c4ccccc4)oc3C)c(Br)c2)C(=O)O)cc1 |
| 55 to 56 °C | CN1CCC(Oc2noc3ccc(Cl)cc23)CC1 |
| 155 to 158 °C | COc1ccccc1N1CCN(Cc2ccccc2CCC(=O)O)CC1 |
| 160 to 162 °C | COc1cc2c(cc1F)C1(CO2)C(=O)N(Cc2ccccc2)c2ccccc21 (stereo unspecified) |
| 170 °C | COc1cc(O)c(Br)c2cc(-c3ccc(O)cc3)oc12 |
| 249 to 250 °C | NC(=O)c1ccc(N2CCN(Cc3cn4ccccc4n3)CC2)cc1 |
| 139 °C | COc1ccc2ccccc2c1CCNC(C)=O |
| 60 °C | Cc1ccc(-c2cccnc2N2CCC(C(=O)O)CC2)cc1C(=O)NCC12CC3CC(CC(C3)C1)C2 |
| 253 to 256 °C | Nc1cc2c3c(cccc3c1N1CCCC1)C(=O)N(O)C2=O |
| 258 to 261 °C | CC(=O)N1CCc2cc(C3=NNC(=O)CC3C)ccc21 (stereo unspecified) |
| 108 °C | COc1ccc(-c2cc(C(=O)NCc3ccccc3)c(=O)n(CC3CCCC3)n2)cc1 |
| 69 °C | CCCCCCCOCCC(=O)Oc1ccc(N=Nc2ccc(OCCCCCC)cc2)cc1 |
| 104 to 105 °C | Cc1cc(COc2ccc(CC(=O)O)cc2Cl)ccc1OC(C)C |
| 51 to 54 °C | CCCOc1ccc(OCC(O)CNCCNc2c(C)cccc2C)cc1 (stereo unspecified) |
| 83.5 to 85 °C | O=C(c1cccc([N+](=O)[O-])c1)N1CCOCC1 |
| 199 °C | COc1ccccc1N(CC(=O)N(C)c1ccccc1)C(=O)CN1C(=O)c2ccccc2C1=O |
| 264 °C | Cc1cc(-c2ccc(C(F)(F)F)cc2)cn2c(-c3nc(-c4ccnc(N)c4)no3)cnc12 |
| 189 to 190 °C | CCSc1ccc(CC(=O)NC(NC(=NC#N)Nc2cccc3ncccc23)C(C)(C)C)cc1 (stereo unspecified) |
| 197 to 200 °C | O=S(=O)(Nc1ccccc1OCC1CCN(c2ccncc2)CC1)c1ccc2cc(Br)ccc2c1 |
| 121 to 123 °C | Cc1cc(C)c(NC(=O)N=C2CCCN2C)c(C)c1 |
| 200 to 202 °C | COC1=Cc2ccc(Cl)cc2C(O)(C2CCN(C)CC2)c2ccsc21 (stereo unspecified) |
| 155 to 157 °C | CNC(=N)Nc1nc(-c2ccc(OC)cc2)c(-c2ccc(OC)cc2)s1 |
| 167 to 171 °C | CNC(=O)NCCn1c(-c2ccc(CCN3CCOCC3)cc2)csc1=Nc1ccc(F)c(C)c1 |
